Square brackets hold non-standard residues; d marks the D form. Ends that are not written are not given here. Peptide text beside a SMILES is read from it. NMeE = CN[C@@H](CCC(=O)O)C(=O)O
Test: Stability of peptide in human serum (residual adhesion inhibitory activity after serum incubation)
Format: in vitro ADME
Conditions: for stability of activity in human serum (in words): 500 μg/mL in 90% human serum, 0 to 56 hours, FIGS. 2A to 2D; for residual adhesion inhibitory activity after serum treatment: untreated FNIII14 = 100
Procedure: FNIII14 (500 μg/mL), each of the modified peptides (500 μg/mL), or a solution thereof was incubated in human serum (final concentration 90%; 0.01% of sodium azide as a preservative having been added thereto) under a condition of 37° C. and 5% CO2 for determined periods in a range of from 0 to 56 hours. Thereafter, each sample was diluted with DMEM (-) such that the peptide concentration in each well would be 25 μg/mL, and was inoculated onto a 96-well tissue culture plate together with A375SM cells prepared at 1.5×10^4/well, the 96-well tissue culture plate having been coated with 0.5 μg/mL of FN. After the plate was subjected to culturing for a certain time, […] of a PBS (-) solution containing 4% of formalin and 5% of sucrose was gently added to wells, and left to stand at room temperature for 1 hour, whereby the cells were immobilized. After the immobilization, the number of cells observed in predetermined four fields was counted and taken as the total number of cells. Non-adhered cells were removed by washing with a PBS (-) solution three times, and then the number of adhered cells in the same four fields as those mentioned above was counted under a microscope. Assuming that the adhesion inhibitory activity of FNIII14 that was not subjected to the treatment with serum was 100, the ratio of the residual adhesion inhibitory activity of FNIII14 or the modified peptide remaining after the serum treatment was evaluated in terms of percentage. In FIGS. 2A to 2C, white diamonds represent the results obtained using FNIII14, white squares represent the results obtained using Ace-FNIII14, white circles represent the results obtained using Met-FNIII14, and white triangles represent the results obtained using D-FNIII14. In FIG. 2D, black circles represent the activity of FNIII14, and black triangles represent the activity of D-Glu-FNIII14.

stability of activity in human serum (in words) (37° C.)	increase of activity in the serum (90% human serum, 37° C.) [%]	residual adhesion inhibitory activity after serum treatment (90% human serum, 37° C.)	resistance to decomposition in human serum (aminopeptidase or the like in human serum)	time at which decomposition tendency was exhibited in serum (long term stability over 60 hours, FIG. 2D) [h]	residual adhesion inhibitory activity after serum treatment (after 20 hours in 90% human serum, 37° C., FIG. 2A)	Compound
more stabilized than FNIII14	–	–	–	–	–	CC[C@H](C)[C@H](NC(=O)[C@@H](NC(=O)[C@H](Cc1ccc(O)cc1)NC(=O)[C@@H](NC(=O)[C@@H](NC(=O)[C@H](Cc1ccc(O)cc1)NC(=O)[C@H](CCC(=O)O)NC(=O)[C@@H](NC(=O)CNC(=O)[C@@H]1CCCN1C(=O)[C@H](CCC(=O)O)NC(=O)[C@H](CC(C)C)NC(=O)CNC(=O)[C@@H](NC(=O)[C@@H](NC(=O)[C@@H](NC(=O)[C@H](C)NC(=O)[C@H](CCC(=O)O)N(C)C(=O)[C@@H](N)[C@@H](C)O)[C@@H](C)O)[C@@H](C)CC)[C@@H](C)O)[C@@H](C)O)[C@@H](C)O)[C@@H](C)CC)C(C)C)C(=O)N[C@@H](C)C(=O)N[C@@H](CC(C)C)C(=O)O [Met-FNIII14, [N-Me-Glu]^2-FNIII14] (H-T[NMeE]ATITGLEPGTEYTIYVIAL-OH; N-terminus and C-terminus assumed)
more stabilized than FNIII14	–	–	–	–	–	Ac-TEATITGLEPGTEYTIYVIAL (N-terminus assumed) [Ace-FNIII14]
rapidly lost its activity within 2 hours	–	–	–	–	about 60%	TEATITGLEPGTEYTIYVIAL [FNIII14, reference compound]

Compound	stability of activity in human serum (in words) (37° C.)	increase of activity in the serum (90% human serum, 37° C.) [%]	residual adhesion inhibitory activity after serum treatment (90% human serum, 37° C.)	resistance to decomposition in human serum (aminopeptidase or the like in human serum)	time at which decomposition tendency was exhibited in serum (long term stability over 60 hours, FIG. 2D) [h]	residual adhesion inhibitory activity after serum treatment (after 20 hours in 90% human serum, 37° C., FIG. 2A)
CC[C@H](C)[C@H](NC(=O)[C@@H](NC(=O)[C@H](Cc1ccc(O)cc1)NC(=O)[C@@H](NC(=O)[C@@H](NC(=O)[C@H](Cc1ccc(O)cc1)NC(=O)[C@H](CCC(=O)O)NC(=O)[C@@H](NC(=O)CNC(=O)[C@@H]1CCCN1C(=O)[C@H](CCC(=O)O)NC(=O)[C@H](CC(C)C)NC(=O)CNC(=O)[C@@H](NC(=O)[C@@H](NC(=O)[C@@H](NC(=O)[C@H](C)NC(=O)[C@@H](CCC(=O)O)NC(=O)[C@@H](N)[C@@H](C)O)[C@@H](C)O)[C@@H](C)CC)[C@@H](C)O)[C@@H](C)O)[C@@H](C)O)[C@@H](C)CC)C(C)C)C(=O)N[C@@H](C)C(=O)N[C@@H](CC(C)C)C(=O)O [D-Glu-FNIII14, T-[D-Glu]-ATITGLEPGTEYTIYVIAL] (H-T[dE]ATITGLEPGTEYTIYVIAL-OH; N-terminus and C-terminus assumed)	did not exhibit a decrease of its activity in the serum	≥ 20	over 100%	exhibited resistance to decomposition	≥ 50	–
